# Assay results reported in PubChem BioAssay AID1159558 (GlaxoSmithKline (GSK), 2015).
# The source made the active and inactive calls.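 How the source made its calls: active means IC50 against T. cruzi CYP51 below a set limit; inactive means the rest.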
# Target: Sterol 14-alpha demethylase (Trypanosoma cruzi (strain CL Brener)) (UniProt Q7Z1V1)
# Assay: TcCYP51 inhibitors, dose response, mechanism study for T. cruzi antiparasitic project, biochemical, recombinant enzyme (AID 1159558);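 further: enzyme in bacterial membranes with Anopheles gambiae CYP reductase and cytochrome b5 partners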
# Conditions: recombinant T. cruzi CYP51, BOMCC fluorescence
# Chain of Sterol 14-alpha demethylase (Trypanosoma cruzi (strain CL Brener)) (Q7Z1V1 whole entry, looked up): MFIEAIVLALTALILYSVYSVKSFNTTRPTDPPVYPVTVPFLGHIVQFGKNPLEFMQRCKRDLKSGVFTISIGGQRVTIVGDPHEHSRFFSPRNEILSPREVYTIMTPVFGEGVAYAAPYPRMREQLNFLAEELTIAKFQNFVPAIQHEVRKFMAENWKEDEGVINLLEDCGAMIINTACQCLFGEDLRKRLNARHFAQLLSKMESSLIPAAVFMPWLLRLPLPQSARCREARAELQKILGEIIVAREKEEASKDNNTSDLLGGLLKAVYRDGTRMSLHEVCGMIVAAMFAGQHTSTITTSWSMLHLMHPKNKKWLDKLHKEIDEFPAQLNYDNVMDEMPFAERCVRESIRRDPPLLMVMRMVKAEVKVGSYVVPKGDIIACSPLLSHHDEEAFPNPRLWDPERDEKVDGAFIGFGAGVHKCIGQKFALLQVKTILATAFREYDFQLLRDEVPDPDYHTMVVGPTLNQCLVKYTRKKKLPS
row,Compound,IC50
1,O=C(NCCc1ccccn1)C(c1cn[nH]c1)N1CCN(c2ccc(Cl)c(Cl)c2)CC1 (configuration not stated),0.13 µM
2,N#Cc1ccc(Br)cc1[N+](=O)[O-],50 µM
3,O=C(NCc1ccc(-n2cccc2)cc1)c1nc(Cn2ccc([N+](=O)[O-])n2)no1,> 100 µM (inactive)
4,NC(=O)c1cc(F)ccc1Nc1nc(NC2CCC(O)CC2)ncc1Br (configuration not stated),10 µM
5,Cn1cncc1CN1CCC2(CC1)COC(Cc1ccccc1)C2 (configuration not stated),1 µM
6,CC(Cn1ccnc1)NC(=O)COc1ccc(Cl)c(Cl)c1 (configuration not stated),0.063 µM
7,OCC1CCCCN1c1cc(-c2ccccn2)nc(Nc2ccccc2)n1 (configuration not stated),79 µM
8,Cc1cc(Nc2cc(C3CC3)[nH]n2)nc(N2CCCC2)n1,> 100 µM (inactive)
9,C=CCn1nc([N+](=O)[O-])nc1Oc1ccc(Cl)cc1Cl,20 µM
10,c1ccc(-c2nc(NCc3ccco3)c3ccccc3n2)nc1,> 100 µM (inactive)
11,O=C(NC(c1ccc(Cl)cc1)c1cnccn1)C1CCN(C(=O)Nc2cccc(C(F)(F)F)c2)CC1 (configuration not stated),0.13 µM
12,CC(C)(C)Nc1nc(-c2ccccn2)nc2ccccc12,> 100 µM (inactive)
13,O=C(NC1C(=O)N(c2ccccc2)C1c1cccnc1)c1ccc(Cl)s1 (configuration not stated),0.2 µM
14,NC(=O)c1cc(F)ccc1Nc1nc(NC2CCC(O)CC2)ncc1Cl (configuration not stated),32 µM
15,O=C(COc1nn(-c2ccccc2)c2ncccc12)NCc1ccccc1,6.3 µM
16,O=C(CCc1ccc(-c2ccccc2)o1)N1CCN(c2ccc(O)cc2)CC1,2.5 µM
17,CCC(=O)Nc1ccccc1C(=O)Nc1ccccn1,> 100 µM (inactive)
18,O=C(NCc1ccc(Cl)cc1)C1CN(C(=O)c2ccc(F)cc2)CCS1 (configuration not stated),13 µM

# The remaining lines, values ahead:
row,IC50,Compound
1,79 µM,N#Cc1ccccc1S(=O)(=O)N1CCN(C(=O)CNC(=O)c2ccc3c(c2)OCO3)CC1
2,5 µM,O=C(Nc1nc2ccccc2[nH]1)c1ccc2nc[nH]c2c1
3,40 µM,Cc1ccc(C)c(CN2C(=O)NC3(CCc4ccccc43)C2=O)c1 (configuration not stated)
4,0.79 µM,CCC1Oc2cc(S(=O)(=O)N(C)CC(=O)N3CCc4ccccc4C3)c(C)cc2NC1=O (configuration not stated)
5,> 100 µM (inactive),O=c1[nH]c(C=Cc2cccc(OCCOc3ccccc3)c2)nc(O)c1[N+](=O)[O-]
6,0.1 µM,Cc1c(C(=O)NCCCCn2ccnc2)oc2c(C)cccc12
7,0.079 µM,N#Cc1ccc(S(=O)(=O)N2CCN(Cc3cccc(-c4ccncc4)c3)CC2)cc1
8,0.79 µM,COc1ccnc2[nH]cc(-c3cc(C(=O)N[C@H](CO)c4ccccc4)co3)c12
9,> 100 µM (inactive),O=C(NCCc1csc(-c2cccc(F)c2)n1)c1ccco1
10,16 µM,Cc1ccc(NC(C)C(=O)Nc2ccc(C#N)cc2)cc1S(=O)(=O)N1CCCCC1 (configuration not stated)
11,50 µM,O=C(Nc1nc(-c2ccc(F)cc2)cs1)c1ccc([N+](=O)[O-])s1
12,6.3 µM,CCOc1ccc(N(C)S(=O)(=O)c2ccc3[nH]cc(C(=O)NC4CCCC4)c(=O)c3c2)cc1
13,> 100 µM (inactive),COc1cc(C(C)C)c(S(C)(=O)=O)cc1C(=O)N1CCN(c2ccccc2Cl)CC1
14,63 µM,COc1ccccc1-n1c(SCC(=O)Nc2ccc3c(c2)OCO3)nc2c(c1=O)SCC2
15,25 µM,CCS(=O)(=O)Nc1ccc(C2=NN(C(=O)c3cccs3)C(c3ccccc3OC)C2)cc1 (configuration not stated)
16,25 µM,OC[C@@H](Nc1nccc(-c2c(-c3ccc(F)cc3)ncn2C2CCNCC2)n1)c1ccccc1
17,> 100 µM (inactive),CCOc1ccc(OCC(=O)N2c3ccccc3CC2C(=O)NC)cc1 (configuration not stated)
18,0.16 µM,CN(Cc1cccnc1)Cc1ccc(N2CCN(C(=O)C3(c4ccc(Cl)cc4)CC3)CC2)nc1
19,> 100 µM (inactive),CNc1cc(C)nc(C2CN(C(=O)c3n[nH]c4ccccc34)CCO2)c1 (configuration not stated)
20,> 100 µM (inactive),CCCN1CCN(Cc2ccc(S(=O)(=O)Nc3cccc(C)c3)cc2)CC1
21,0.063 µM,Cc1nn(C)c(Cl)c1CN(Cc1cccnc1)Cc1ccsc1
22,0.16 µM,O=C(Nc1cccc(F)c1)N1CCC(Oc2cccc(-c3cccnc3)c2)CC1
23,13 µM,CN(C)S(=O)(=O)c1cccc(CSc2nnc(-c3ccc4c(c3)OCO4)o2)c1
24,32 µM,COc1cccc(C(=O)[C@H]2C[C@@H]2CN(Cc2ccccn2)Cc2ccccn2)c1
